Experimental data as given in ChEMBL document CHEMBL1201862, “PubChem BioAssay data set” (2004).
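Dose response: 5 concentrations. Exposure: 48 h. Format: 96-well plates. Endpoint: linear interpolation; highest concentration if not reached. Abbreviation: GI50, concentration required for 50% inhibition of growth.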 Activity calls are given as the source filed them. No stated cut-off is given here; in the data, active = GI50 up to about 1.1 µM and inactive = higher. Where a SMILES comes first, the peptide text is derived from it. [ ]: non-standard residue; d: D form. Ac5c = NC1(C(=O)O)CCCC1

What was measured:
Assay in all cases: NCI anticancer screen, dose series, 48 h
MDA-MB-435 = tested on: MDA-MB-435
HT-29 = tested on: HT-29
HOP-92 = tested on: HOP-92
Malme-3M = tested on: Malme-3M
TK-10 = tested on: TK-10
HL-60 = tested on: HL-60
SR = tested on: SR
NCI-H226 = tested on: NCI-H226
RPMI-8226 = tested on: RPMI-8226
OVCAR-3 = tested on: OVCAR-3
SNB-75 = tested on: SNB-75
A498 = tested on: A498
OVCAR-4 = tested on: OVCAR-4
T47D = tested on: T47D
HCT-15 = tested on: HCT-15
786-0 = tested on: 786-0
COLO 205 = tested on: COLO 205
MCF7 = tested on: MCF7
RXF 393 = tested on: RXF 393
SK-OV-3 = tested on: SK-OV-3

C/C(=N\Nc1nc2cc(Cl)ccc2s1)c1ccccn1
GI50 (MDA-MB-435): 1.83 µM (inactive) | GI50 (HT-29): 0.0824 µM (active) | GI50 (HOP-92): 0.473 µM (active) | GI50 (Malme-3M): 0.834 µM (active) | GI50 (TK-10): 2.74 µM (inactive) | GI50 (HL-60): 0.14 µM (active) | GI50 (SR): 0.228 µM (active) | GI50 (NCI-H226): 0.32 µM (active) | GI50 (RPMI-8226): 0.264 µM (active) | GI50 (OVCAR-3): 0.0946 µM (active) | GI50 (SNB-75): 1.72 µM (inactive) | GI50 (A498): 1.61 µM (inactive) | GI50 (OVCAR-4): 0.39 µM (active) | GI50 (T47D): 0.402 µM (active) | GI50 (HCT-15): 0.111 µM | GI50 (786-0): 0.617 µM (active) | GI50 (COLO 205): 0.09 µM (active) | GI50 (MCF7): 0.0867 µM (active) | GI50 (RXF 393): 1.99 µM (inactive) | GI50 (SK-OV-3): 0.404 µM (active)

CCCCCCNC(=O)c1cc(CCc2cc(O)ccc2O)ccc1O
GI50 (MDA-MB-435): 3.61 µM (inactive) | GI50 (HT-29): 20.1 µM (inactive) | GI50 (HOP-92): 1.72 µM (inactive) | GI50 (Malme-3M): 2.35 µM (inactive) | GI50 (TK-10): 2.96 µM (inactive) | GI50 (HL-60): 0.723 µM (active) | GI50 (SR): 2.23 µM (inactive) | GI50 (NCI-H226): 4.23 µM (inactive) | GI50 (RPMI-8226): 1.11 µM (active) | GI50 (OVCAR-3): 2.3 µM (inactive) | GI50 (SNB-75): 4.93 µM (inactive) | GI50 (A498): 4.24 µM (inactive) | GI50 (OVCAR-4): 2.47 µM (inactive) | GI50 (T47D): 1.85 µM (inactive) | GI50 (HCT-15): 2.48 µM | GI50 (786-0): 2.04 µM (inactive) | GI50 (COLO 205): 10.9 µM (inactive) | GI50 (MCF7): 3.25 µM (inactive) | GI50 (RXF 393): 1.8 µM (inactive) | GI50 (SK-OV-3): 9.95 µM (inactive)

NC1(C(=O)NC2(C(=O)O)CCCC2)CCCC1 (H-[Ac5c]-[Ac5c]-OH)
GI50 (MDA-MB-435): > 100 µM (inactive) | GI50 (HT-29): > 100 µM (inactive) | GI50 (HOP-92): > 100 µM (inactive) | GI50 (Malme-3M): > 100 µM (inactive) | GI50 (TK-10): > 100 µM (inactive) | GI50 (HL-60): > 100 µM (inactive) | GI50 (SR): > 100 µM (inactive) | GI50 (NCI-H226): > 100 µM (inactive) | GI50 (RPMI-8226): > 100 µM (inactive) | GI50 (OVCAR-3): > 100 µM (inactive) | GI50 (SNB-75): > 100 µM (inactive) | GI50 (A498): > 100 µM (inactive) | GI50 (OVCAR-4): > 100 µM (inactive) | GI50 (T47D): > 100 µM (inactive) | GI50 (HCT-15): > 100 µM | GI50 (786-0): > 100 µM (inactive) | GI50 (COLO 205): > 100 µM (inactive) | GI50 (MCF7): > 100 µM (inactive) | GI50 (RXF 393): > 100 µM (inactive) | GI50 (SK-OV-3): > 100 µM (inactive)

COc1ccc(/C=C/C(=O)c2cccc(C(=O)/C=C/c3ccc(OC)c(OC)c3)n2)cc1OC
GI50 (MDA-MB-435): > 50.9 µM (inactive) | GI50 (HT-29): 7.87 µM (inactive) | GI50 (HOP-92): > 100 µM (inactive) | GI50 (Malme-3M): 24.5 µM (inactive) | GI50 (TK-10): > 100 µM (inactive) | GI50 (HL-60): 1.15 µM (inactive) | GI50 (SR): 2.91 µM (inactive) | GI50 (NCI-H226): > 100 µM (inactive) | GI50 (RPMI-8226): 3.23 µM (inactive) | GI50 (OVCAR-3): > 54.8 µM (inactive) | GI50 (SNB-75): > 100 µM (inactive) | GI50 (A498): > 91.2 µM (inactive) | GI50 (OVCAR-4): > 100 µM (inactive) | GI50 (T47D): > 49.3 µM (inactive) | GI50 (HCT-15): 14 µM | GI50 (786-0): 11.9 µM (inactive) | GI50 (COLO 205): > 68.2 µM (inactive) | GI50 (MCF7): 3.64 µM (inactive) | GI50 (RXF 393): 40.4 µM (inactive) | GI50 (SK-OV-3): > 100 µM (inactive)

O=S(=O)(c1cnccc1N1CCN(CCO)CC1)N1CCCC1
GI50 (MDA-MB-435): > 100 µM (inactive) | GI50 (HT-29): > 100 µM (inactive) | GI50 (HOP-92): > 100 µM (inactive) | GI50 (Malme-3M): > 100 µM (inactive) | GI50 (TK-10): > 100 µM (inactive) | GI50 (HL-60): > 100 µM (inactive) | GI50 (SR): > 100 µM (inactive) | GI50 (NCI-H226): > 100 µM (inactive) | GI50 (RPMI-8226): > 100 µM (inactive) | GI50 (OVCAR-3): > 100 µM (inactive) | GI50 (SNB-75): > 100 µM (inactive) | GI50 (A498): > 100 µM (inactive) | GI50 (OVCAR-4): > 100 µM (inactive) | GI50 (T47D): > 100 µM (inactive) | GI50 (HCT-15): > 100 µM | GI50 (786-0): > 100 µM (inactive) | GI50 (COLO 205): > 100 µM (inactive) | GI50 (MCF7): > 100 µM (inactive) | GI50 (RXF 393): > 100 µM (inactive) | GI50 (SK-OV-3): > 100 µM (inactive)

O=C1CSC(c2cc3cc(Br)ccc3nc2Cl)N1c1ccc(F)c(Cl)c1 (stereo not given)
GI50 (MDA-MB-435): 25.1 µM (inactive) | GI50 (HT-29): > 50 µM (inactive) | GI50 (HOP-92): > 50 µM (inactive) | GI50 (Malme-3M): > 50 µM (inactive) | GI50 (TK-10): > 50 µM (inactive) | GI50 (HL-60): > 50 µM (inactive) | GI50 (SR): 12.7 µM (inactive) | GI50 (NCI-H226): 43.5 µM (inactive) | GI50 (RPMI-8226): 18.1 µM (inactive) | GI50 (OVCAR-3): > 50 µM (inactive) | GI50 (SNB-75): > 50 µM (inactive) | GI50 (A498): > 50 µM (inactive) | GI50 (OVCAR-4): > 50 µM (inactive) | GI50 (T47D): 31.4 µM (inactive) | GI50 (HCT-15): 33 µM | GI50 (786-0): 27.4 µM (inactive) | GI50 (COLO 205): > 50 µM (inactive) | GI50 (MCF7): 18.9 µM (inactive) | GI50 (RXF 393): > 50 µM (inactive) | GI50 (SK-OV-3): > 50 µM (inactive)

CC(C)/C(Cl)=N/OC(=O)Nc1ccc(F)c(Cl)c1
GI50 (MDA-MB-435): 7.26 µM (inactive) | GI50 (HT-29): 5.69 µM (inactive) | GI50 (HOP-92): 1.59 µM (inactive) | GI50 (Malme-3M): 1.96 µM (inactive) | GI50 (TK-10): 17.9 µM (inactive) | GI50 (HL-60): 2.03 µM (inactive) | GI50 (SR): 1.56 µM (inactive) | GI50 (NCI-H226): 16.6 µM (inactive) | GI50 (RPMI-8226): 1.87 µM (inactive) | GI50 (OVCAR-3): 3.4 µM (inactive) | GI50 (SNB-75): 17.8 µM (inactive) | GI50 (A498): 18.2 µM (inactive) | GI50 (OVCAR-4): 8.49 µM (inactive) | GI50 (T47D): 5.11 µM (inactive) | GI50 (HCT-15): 1.93 µM | GI50 (786-0): 1.6 µM (inactive) | GI50 (COLO 205): 1.77 µM (inactive) | GI50 (MCF7): 6.64 µM (inactive) | GI50 (RXF 393): 12.9 µM (inactive) | GI50 (SK-OV-3): 16.4 µM (inactive)

O=C1N[C@@H](c2c[nH]c3cc(Br)ccc23)C(=O)N[C@H]1c1c[nH]c2cc(Br)ccc12
GI50 (MDA-MB-435): > 100 µM (inactive) | GI50 (HT-29): > 100 µM (inactive) | GI50 (HOP-92): 40.6 µM (inactive) | GI50 (Malme-3M): > 100 µM (inactive) | GI50 (TK-10): > 100 µM (inactive) | GI50 (HL-60): > 100 µM (inactive) | GI50 (SR): > 100 µM (inactive) | GI50 (NCI-H226): > 100 µM (inactive) | GI50 (RPMI-8226): > 100 µM (inactive) | GI50 (OVCAR-3): > 100 µM (inactive) | GI50 (SNB-75): 9.4 µM (inactive) | GI50 (A498): > 100 µM (inactive) | GI50 (OVCAR-4): > 100 µM (inactive) | GI50 (T47D): > 100 µM (inactive) | GI50 (HCT-15): > 100 µM | GI50 (786-0): > 100 µM (inactive) | GI50 (COLO 205): > 100 µM (inactive) | GI50 (MCF7): > 100 µM (inactive) | GI50 (RXF 393): > 100 µM (inactive) | GI50 (SK-OV-3): 35.4 µM (inactive)

Brc1ccc(C2C3CSc4ccccc4C3=NN2c2ccccc2)cc1 (stereo not given)
GI50 (MDA-MB-435): > 100 µM (inactive) | GI50 (HT-29): 78.2 µM (inactive) | GI50 (HOP-92): > 100 µM (inactive) | GI50 (Malme-3M): > 100 µM (inactive) | GI50 (TK-10): > 100 µM (inactive) | GI50 (HL-60): 42.9 µM (inactive) | GI50 (SR): 44.2 µM (inactive) | GI50 (NCI-H226): > 100 µM (inactive) | GI50 (RPMI-8226): 27.3 µM (inactive) | GI50 (OVCAR-3): > 100 µM (inactive) | GI50 (SNB-75): 69 µM (inactive) | GI50 (A498): > 100 µM (inactive) | GI50 (OVCAR-4): 7.62 µM (inactive) | GI50 (T47D): 14.3 µM (inactive) | GI50 (HCT-15): 39.6 µM | GI50 (786-0): > 100 µM (inactive) | GI50 (COLO 205): 97.1 µM (inactive) | GI50 (MCF7): 14.5 µM (inactive) | GI50 (RXF 393): > 100 µM (inactive) | GI50 (SK-OV-3): 82.8 µM (inactive)

COc1ccc(NC(C(N)=O)c2cc3cc(Br)ccc3nc2Cl)cc1 (stereo not given)
GI50 (MDA-MB-435): 22.1 µM (inactive) | GI50 (HT-29): > 100 µM (inactive) | GI50 (HOP-92): 22.5 µM (inactive) | GI50 (Malme-3M): > 100 µM (inactive) | GI50 (TK-10): 3.64 µM (inactive) | GI50 (HL-60): 25.4 µM (inactive) | GI50 (SR): 15.6 µM (inactive) | GI50 (NCI-H226): > 100 µM (inactive) | GI50 (RPMI-8226): 30.4 µM (inactive) | GI50 (OVCAR-3): 60.7 µM (inactive) | GI50 (SNB-75): 81.5 µM (inactive) | GI50 (A498): > 100 µM (inactive) | GI50 (OVCAR-4): 68.4 µM (inactive) | GI50 (T47D): 58.1 µM (inactive) | GI50 (HCT-15): 47.5 µM | GI50 (786-0): > 100 µM (inactive) | GI50 (COLO 205): 41 µM (inactive) | GI50 (MCF7): 32.4 µM (inactive) | GI50 (RXF 393): 38.3 µM (inactive) | GI50 (SK-OV-3): > 100 µM (inactive)
